Laboratory results as given in ChEMBL document CHEMBL2021887, “Olean-18-ene triterpenoids from Celastraceae species inhibit HIV replication targeting NF-kB and Sp1 dependent transcription” (Eur J Med Chem, 2012).
Active and inactive are the calls of the source. No cut-off for these calls is given here.

How the values were obtained:
MT2 [1] = test: Cytotoxicity against non-infected human MT2 cells at 10 uM after 48 hrs by CellTiter Glo assay; type: cell-based; conditions: mt2, 48 h
[2] = test system: Human immunodeficiency virus 1; test: Antiviral activity against X4 tropic HIV1 pNL4.3-Ren infected in human MT2 cells at 10 uM dosed simultaneously with virus infection measured 48 hrs post-infection by recombinant virus assay; type: functional; conditions: Human immunodeficiency virus 1, pNL4.3-Ren, MT2, 48 h; values are per cent of control
[3] = Cytotoxicity against non-infected human MT2 cells after 48 hrs by CellTiter Glo assay; type: cell-based
[4] = test system: Human immunodeficiency virus 1; test: Antiviral activity against luciferase tagged VSV envelope pseudotyped HIV1 infected in human MT2 cells dosed simultaneously with virus infection measured 48 hrs post-infection by recombinant virus assay; type: functional, organism-based; conditions: Human immunodeficiency virus 1, MT2, 48 h
[5] = test system: Human immunodeficiency virus 1; test: Antiviral activity against X4 tropic HIV1 pNL4.3-Ren infected in human MT2 cells dosed simultaneously with virus infection measured 48 hrs post-infection by recombinant virus assay; type: functional, organism-based; conditions: Human immunodeficiency virus 1, pNL4.3-Ren, MT2, 48 h
MT2 [6] = test: Inhibition of NFkappaB transcription in X4 tropic HIV1 pNL4.3-Luc transfected human MT2 cells at 20 uM dosed post transfection and measured 24 hrs post compound dose by luciferase reporter gene assay; type: functional
[7] = test system: Human immunodeficiency virus 1; test: Inhibition of viral transcription in X4 tropic HIV1 pNL4.3-Luc transfected human MT2 cells at 20 uM dosed post transfection and measured 24 hrs post compound dose by luciferase reporter gene assay; type: functional; conditions: Human immunodeficiency virus 1, pNL4.3-Luc, MT2, 24 h; read-out: INH
MT2 [8] = test: Inhibition of Sp1 transcription in X4 tropic HIV1 pNL4.3-Luc transfected human MT2 cells at 20 uM dosed post transfection and measured 24 hrs post compound dose by luciferase reporter gene assay; type: functional

Row | Structure (SMILES) | Activity (MT2 [1]) [%] | residual activity at 10 µM [2] [%] | CC50 at 48 h [3] [µM] | IC50 [4] [µM] | IC50 [5] [µM] | inhibition (MT2 [6]) | percent inhibition at 20 µM [7] [%] | inhibition (MT2 [8])
1 | CC(=O)O[C@H]1CC[C@]2(C)[C@H]3CC[C@@H]4C5=CC(C)(C)CC[C@]5(C)CC[C@@]4(C)[C@]3(C)C[C@@H](O)[C@H]2C1(C)C | 124 | 102 |  |  |  |  |  | 
2 | CC1(C)C=C2[C@H]3CC[C@@H]4[C@@]5(C)CCC(=O)C(C)(C)[C@@H]5CC[C@@]4(C)[C@]3(C)CC[C@@]2(C)CC1 [GERMANICONE] |  | 84 |  |  |  |  |  | 
3 | CC1(C)C=C2[C@H]3CC[C@@H]4[C@@]5(C)CC[C@H](O)C(C)(C)[C@@H]5[C@H](O)C[C@@]4(C)[C@]3(C)CC[C@@]2(C)CC1 | 5 | 1 | 25.5 | 4.32 | 11.6 |  |  | 
4 | CC1(C)[C@@H](O)CC[C@]2(C)[C@H]3CC[C@@H]4C5=C[C@](C)(CO)CC[C@]5(C)CC[C@@]4(C)[C@]3(C)CC[C@@H]12 | 67 | 17 | > 100 | 6.56 | 10.4 | Active | < 50 | Active
5 | CC1(C)C(=O)CC[C@]2(C)[C@H]3CC[C@@H]4C5=C[C@](C)(CO)CC[C@]5(C)CC[C@@]4(C)[C@]3(C)C[C@@H](O)[C@@H]12 | 62 | 16 | > 100 | 20 | 65.6 | Active | < 50 | Active
6 | CC1(C)C=C2[C@H]3CC[C@@H]4[C@@]5(C)CCC(=O)C(C)(C)[C@@H]5CC[C@@]4(C)[C@]3(C)CC[C@@]2(C)C[C@H]1O | 74 | 22 | > 100 | 20 | 20 | Active | < 50 | Active
7 | CC1(C)C=C2[C@H]3CC[C@@H]4[C@@]5(C)CC[C@H](O)C(C)(C)[C@@H]5CC[C@@]4(C)[C@]3(C)CC[C@@]2(C)CC1 [GERMANICOL] |  | 86 |  |  |  |  |  | 
8 | CC(=O)OC[C@@]1(C)C=C2[C@H]3CC[C@@H]4[C@@]5(C)CCC(=O)C(C)(C)[C@@H]5CC[C@@]4(C)[C@]3(C)CC[C@@]2(C)CC1 | 116 | 116 |  |  |  |  |  | 
9 | CC1(C)C=C2[C@H]3C[C@@H](O)[C@@H]4[C@@]5(C)CC[C@H](O)C(C)(C)[C@@H]5CC[C@@]4(C)[C@]3(C)CC[C@@]2(CO)CC1 |  | 78 |  |  |  |  |  | 
10 | CC1(C)C=C2[C@H]3CC[C@@H]4[C@@]5(C)CCC(=O)C(C)(C)[C@@H]5[C@H](O)C[C@@]4(C)[C@]3(C)CC[C@@]2(C)CC1 | 222 | 28 | > 100 | 5.14 | 23.8 | Active | < 50 | Active
11 | CC1(C)C=C2[C@H]3CC[C@@H]4[C@@]5(C)CCC(=O)C(C)(C)[C@@H]5CC[C@@]4(C)[C@]3(C)CC[C@@]2(C)CC1=O | 222 | 14 | > 100 | 3.2 | 4.04 | Active | < 50 | Active
12 | CC1(C)C=C2[C@H]3CC[C@@H]4[C@@]5(C)CC[C@H](O)C(C)(C)[C@@H]5CC[C@@]4(C)[C@]3(C)CC[C@@]2(C)C[C@H]1O | 69 | 18 | > 100 | 54.3 | 64.4 | Active | < 50 | Active
13 | CC1(C)C(=O)CC[C@]2(C)[C@H]3CC[C@@H]4C5=C[C@](C)(CO)CC[C@]5(C)CC[C@@]4(C)[C@]3(C)CC[C@@H]12 |  | 50 |  |  |  |  |  | 
14 | CC1(C)C=C2[C@H]3C[C@@H](O)[C@@H]4[C@@]5(C)CC[C@H](O)C(C)(C)[C@@H]5CC[C@@]4(C)[C@]3(C)CC[C@@]2(C)CC1 [NIVADIOL] |  | 121 |  |  |  |  |  | 
15 | CC(=O)O[C@H]1CC[C@]2(C)[C@H]3CC[C@@H]4C5=CC(C)(C)[C@H](OC(C)=O)C[C@]5(C)CC[C@@]4(C)[C@]3(C)CC[C@H]2C1(C)C | 93 | 107 |  |  |  |  |  | 
